Reference: US8063104B2, “Guanidine derivatives as inhibitors of DDAH” (UCL Business PLC, priority 2004, dated 2011)
Several values for one entry are separate records, joined by “and”; a condition that tells them apart may be missing. Equal entries are not always repeated. Where two headings read alike, the source gives them in different places.

What was measured:
DDAH = biological target: T1, DDAH (Rattus norvegicus, UniProt O08557); assay: DDAH activity assay (rat kidney lysate, [14C]L-NMMA to [14C]citrulline); format: biochemical; details: 1 mM compound, [14C]L-NMMA 1 μmol/L, 1 h 37° C.
T1 construct: Rat kidney was homogenized in PBS; from tissue; host or cells: rat kidney homogenate, high-speed supernatant
T1 sequence (O08557 2-285 limits assumed): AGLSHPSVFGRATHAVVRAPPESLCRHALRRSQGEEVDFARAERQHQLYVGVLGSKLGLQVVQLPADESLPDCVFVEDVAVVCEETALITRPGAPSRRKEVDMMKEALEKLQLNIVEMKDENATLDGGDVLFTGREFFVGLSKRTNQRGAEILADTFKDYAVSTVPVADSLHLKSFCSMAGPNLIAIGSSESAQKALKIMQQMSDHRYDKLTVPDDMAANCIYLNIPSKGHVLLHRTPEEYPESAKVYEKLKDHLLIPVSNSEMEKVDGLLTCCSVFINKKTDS
Protocol: Rat kidney was homogenized in PBS containing PMSF 1 mM, leupeptin 5 μg/ml, pepstatin 5 μg/ml, chymostatin 5 μg/ml, and the lysate was centrifuged (4000 rpm. 20 min then supernatant further centrifuged for 40000 rpm, 30 min, 4° C.). The supernatants were analyzed for DDAH activity; [^14[…]) was added to the cell lysates (final volume 100 μl) and incubated for 1 h at 37° C. Dowex resin (0.5 ml) at neutral pH was immediately added to samples to terminate the reaction and bind unmetabolized L-NMMA. [^14C]Citrulline formation was determined by scintillation counting (Hewlett Packard).

iNOS = biological target: T2, iNOS (Mus musculus, UniProt P29477); assay: iNOS activity Greiss assay in stimulated RAW cells; format: cell-based; details: Griess NOx, RAW cells stimulated 24 h with LPS/IFN and TNF, compound 0.5 mM, 550 nm; control 0.367 ± 0.021
T2 construct: endogenous in cells; host or cells: RAW cells stimulated with LPS/IFN and TNF
Protocol: RAW cells were stimulated for 24 h with LPS/IFN and TNF, in the presence of the DDAH inhibitor compounds (0.5 mM). Levels of NOx secreted into the media by the cells were determined by Griess assay: Greiss reagent [1:1 sulfanilamide ([…]) in ortho-phosphoric acid (50%) and N-(1-napthyl)ethylenediamine dihydrochloride (1%)] was added as 100 μl volume to 100 μl cell culture media and the plate was read at 550 nm and analysed in relation to sodium nitrite and nitrate standards.

eNOS = eNOS assay ([14C]arginine conversion); format: biochemical; details: eNOS activity
Protocol: Compounds to be tested were added to NOS assay buffer (HEPES 50 mM pH 7.2, FAD 5 μM, FMN 5 μM, BH4 10 μM, NADPH 1 mM, DTT 0.5 mM, CaCl2 1 mM, MgCl2 1 mM, calmodulin 50 nM, [^14C] arginine 100 μM) in a final volume of 100 μl and the reaction was initiated by addition of eNOS (eNOS 3.3. U/reaction, Alexis Biochemicals). Reactions were incubated for 1 h at 37° C. and the reaction was terminated by the addition of Dowex pH 5.5 (0.85 ml) to each tube. Tubes were vortexed and microfuged <12000 g, 5 min. 100 μl of the Dowex supernatant was added to 5 ml scintillation cocktail and was counted in a scintillation counter (Hewlett Packard). The compounds were tested at 1 mM and 0.1 mM concentrations. Activity is expressed as % of control where control contained no inhibitor, n=4. The DDAH inhibitors of the present invention tested had no significant effect on eNOS activity.

RAW cells = assay: Cell viability assay (MTT) in RAW cells
Protocol: RAW cells were treated with DDAH inhibitor compound (0.5 mM) in complete media for 24 h; cells were subsequently assessed for viability by MTT assay. Cell culture media was removed from cells and replaced with 200 μl complete media containing 3-[4,5-Dimethylthiazol-2-yl]-2,5-diphenyltetrazolium bromide (MTT 0.2 mg/ml) for 30 min at 37° C. MTT containing media was removed and 100 ul DMSO was added to solubilize cells; after shaking, plates were read at OD550 nm.

[1] = In vivo study: serum dimethylarginine levels after i.v. bolus; set-up: species or system Male Wistar rats; details: 4 hours after 60 mg/kg i.v. bolus, control 1.81 ± 0.23
Protocol: Male Wistar rats (250-300 g; Charles River, Margate, Kent, UK) were anaesthetised using Isoflurane. The jugular vein was cannulated. Animals were injected intravenously with a bolus dose of inhibitor (60 mg/kg) or saline. Anaesthesia was maintained for 4 hours at the end of which blood was obtained via cardiac puncture for the determination of serum dimethylarginine levels. [All animals received care in compliance with The British Home Office Regulations and Principles of Laboratory Animal Care. (Project licenses PPL/5344, PPL/4824, PPL 70/5580)]
SDMA is not a substrate for DDAH and the levels of SDMA would be expected to be the same of the treated and the control animals, and this was the case. Since there is a great deal of variability of the “normal” ADMA and SDMA level, it is useful to measure the ratio of ADMA and SDMA in each animal to provide a reliable indicator of the relative changes of these to substances.

[2] = tested on: zymosan-induced peritonitis; assay: Zymosan-induced peritonitis, C57/Blk6 mice; format: in vivo
Protocol: (§1) The effects of a DDAH inhibitor on zymosan-induced peritonitis were tested in two different strains of mice. C57/Blk6 or TO mice, male 8-10 weeks were placed in a heat box for 10 mins at 38° C., and treated with 60 mg/kg of SR291 [NA-(2-methoxyethyl)-L-arginine methyl ester] i.v. 30 mins later they were given 1 mg of zymosan i.p. A second dose of SR291 (60 mg/kg) was administered 2 h later and after 4 h mice were anesthetised with isofluorane and blood withdrawn by cardiac puncture. Mice were sacrificed and had 2 mls of ice cold PBS injected into their peritoneal cavity, the cavity was then gently massaged and cut open, the peritoneal washout was harvested and put on ice. Blood was spun down at 400 g, 10 mins at 4° C. The cells were spun at 4000 rpm for 5 mins at 4° C. Plasma was removed from the blood and frozen at −80° C. The exudates from the washout were removed and frozen at −80° C., the cell pellet was resuspended in 1 ml ice cold PBS and were counted on a haemocytometer. The cells were spun as before, the supernatant discarded and the cells frozen at −80° C. Polymorphonuclear (PMN) cell infiltrate into the peritoneal cavity was used to measure inflammation. […] Taken off at 4 hrs. […] Taken off at 4 hrs.

[3] = tested on: zymosan-induced peritonitis; assay: Zymosan-induced peritonitis, TO mice; format: in vivo; details: for cells 10^6/ml (individual animals 1-6): 60 mg/kg iv −30 min, +2 hrs, taken off at 4 hrs, listed as SR291, 60 mg/kg
Protocol: as §1

rat aortic rings [4] = assay: NOx production from endotoxin-treated rat aortic rings in static culture; format: cell-based; details: endotoxin 10 μg/ml, compound 500 μM
Protocol: FIG. 1 is a graph showing the nitrate and nitrite (NOx) production from isolated rat aortic rings in static culture in the presence of either media alone (untreated); media plus 10 μg/ml LPS (LPS) and media plus 10 μg/ml LPS and 500 μM SR257 or SR291. n≧6; *p<0.0001 One Way ANOVA plus Bonferroni post hoc correction;
Effects of two compounds SR 291 [N^G-(2-methoxyethyl)-L-arginine methyl ester] and SR 257 [N^G-(2-methoxyethyl)-L-arginine]) have been tested in a series of models of endotoxin-induced vascular dysfunction. Treatment of rat aortic vascular rings in static culture with endotoxin (10 μg/ml) led to an increase in generation of nitric oxide (as measured by nitrite and nitrate). This increase in NO was prevented by treatment with 500 μM SR257 or SR291.

rat aortic rings [5] = assay: Endotoxin-induced hyporeactivity to vasoconstrictors in rat aortic rings; format: cell-based; details: endotoxin 0.3 μg/ml, compound 100 μM and 200 μM
Protocol: Incubation of rat aortic rings with endotoxin (0.3 μg/ml) led to the development of hyporeactivity to vasoconstrictors.

[6] = Endotoxin-induced fall in systemic blood pressure in anaesthetized rat; format: in vivo; details: endotoxin 40 mg/kg, infusion 30 mg/kg/hr
Protocol: Effects of intervention after 2-3 hours (when blood pressure had fallen to 80% of baseline pre LPS blood pressure) with 30 mg/kg/hr infusion of SR291; Injection of endotoxin (40 mg/kg) into rats caused a progressive fall in systemic BP. The decline was halted by infusion of 30 mg/kg/hr SR291.

[7] = MTT, RAW cells, compound 0.5 mM, 24 h, OD550 nm, control 2.54 ± 0.26

COCCN=C(N)NCC[C@H](N)C(=O)OC [Example 22, (S)-2-Amino-4-(N′-(2-methoxyethyl)guanidino)butanoic acid methyl ester]
inhibition at 1000 µM (DDAH): 75% | OD units drug ± sd (iNOS): 0.329 ± 0.013 OD units | % of control ± sd (eNOS; 0.1 mM compound): 87.23 ± 18.05 [2] % of control | % of control ± sd (eNOS; 1 mM compound): 84.05 ± 8.09 [4] % of control | OD units drug ± sd (RAW cells): 2.33 ± 0.19 OD units

COCCN=C(N)NCCCC(N)C(=O)OC [Example 28, N^G-(2-Methoxyethyl)-L-arginine methyl ester]
inhibition at 1000 µM (DDAH): 83% | OD units drug ± sd (iNOS): 0.325 ± 0.009 OD units | % of control ± sd (eNOS; 0.1 mM compound): 120.8 ± 17.80 [2] % of control | % of control ± sd (eNOS; 1 mM compound): 112.5 ± 27.47 [4] % of control | ADMA:SDMA ± sd [1]: 2.73 ± 0.44 | cells million/ml (peritoneal washout, individual animals 1-5) ([2]; C57 male 8-10 weeks, 60 mg/kg iv −30 min, taken off at 4 hrs, listed as SR291, 60 mg/kg): 3 million/ml and 4 million/ml and 4.5 million/ml and 6.5 million/ml and 9 million/ml | cells 10^6/ml, mean ([2]; combination of two datasets for the C57 mice, saline 6.7455): 4.2 10^6/ml | cells million/ml, mean ([2]; cumulative of Table 6 dataset, saline 9.1): 5.4 million/ml | PMN infiltrate into the peritoneal cavity ([2]; three separate experiments, 8-12 mice each, C57/Blk6 or TO mice, 60 mg/kg i.v.): significantly reduced | cells 10^6/ml (individual animals 1-6) ([3]; TO mice male 8-10 weeks, first study): 3.05 10^6/ml and 3.35 10^6/ml and 3.2 10^6/ml and 1.4 10^6/ml and 3.9 10^6/ml and 4.3 10^6/ml | cells 10^6/ml (individual animals 1-6) ([3]; TO mice, second study): 4.3 10^6/ml (2×) and 4.6 10^6/ml and 4.85 10^6/ml and 5.2 10^6/ml and 3.9 10^6/ml | cells 10^6/ml, mean ([3]; cumulative of Table 9 dataset, saline 4.783333): 3.2 10^6/ml | cells 10^6/ml, mean ([3]; cumulative of Table 11 dataset, saline 6.125): 4.525 10^6/ml | cells 10^6/ml, mean ([3]; cumulative of the two datasets of Tables 9 and 11, saline 5.454167): 3.8625 10^6/ml | endotoxin-induced increase in NO (nitrite and nitrate) (rat aortic rings [4]): prevented | endotoxin-induced hyporeactivity to vasoconstrictors (rat aortic rings [5]): reversed dose dependently | progressive fall in systemic BP [6]: halted | OD units drug ± sd (RAW cells): 2.41 ± 0.10 OD units

CNC(=N)NCCC[C@H](N)C(=O)O [L-NMMA, N^G monomethyl-L-arginine, reference compound]
OD units drug ± sd (iNOS): 0.121 ± 0.003 OD units | % of control ± sd (eNOS; 1 mM compound): 16.17 ± 15.78 [4] % of control | OD units drug ± sd (RAW cells; [7]): 2.22 ± 0.08 OD units

COCCN=C(N)NCC[C@H](N)C(=O)OCc1ccccc1 [Example 26, (S)-2-Amino-4-(N′-(2-methoxyethyl)guanidino)butanoic acid benzyl ester]
inhibition at 1000 µM (DDAH): 96% | OD units drug ± sd (iNOS): 0.327 ± 0.026 OD units | % of control ± sd (eNOS; 0.1 mM compound): 101.2 ± 38.07 [2] % of control | % of control ± sd (eNOS; 1 mM compound): 82.88 ± 10.08 [4] % of control | OD units drug ± sd (RAW cells): 2.40 ± 0.17 OD units

CC(=N)NCCC[C@H](N)C(=O)O [NIO, L-N-5-(1-iminoethyl)ornithine, reference compound]
OD units drug ± sd (iNOS): 0.103 ± 0.002 OD units | % of control ± sd (eNOS; 0.1 mM compound): 4.14 ± 8.74 [3] % of control | % of control ± sd (eNOS; 1 mM compound): 6.25 ± 7.52 [5] % of control | OD units drug ± sd (RAW cells; [7]): 1.89 ± 0.41 OD units

COCCN=C(N)NCCCC(N)C(=O)O [Example 21, N^G-(2-methoxyethyl)-L-arginine]
inhibition at 1000 µM (DDAH): 100% | OD units drug ± sd (iNOS): 0.326 ± 0.014 OD units | % of control ± sd (eNOS; 0.1 mM compound): 96.84 ± 30.49 [2] % of control | % of control ± sd (eNOS; 1 mM compound): 84.81 ± 22.74 [4] % of control | ADMA:SDMA ± sd [1]: 3.50 ± 0.48 | endotoxin-induced increase in NO (nitrite and nitrate) (rat aortic rings [4]): prevented | endotoxin-induced hyporeactivity to vasoconstrictors (rat aortic rings [5]): reversed dose dependently | OD units drug ± sd (RAW cells; [7]): 2.15 ± 0.13 OD units

CCCOC(=O)[C@@H](N)CCN(CCOC)C(=N)N [Example 24, (S)-2-Amino-4-(N-(2-methoxyethyl)guanidino)butanoic acid propyl ester]
Inhibition at 1 mM, % (DDAH): 64% | OD units drug ± sd (iNOS): 0.351 ± 0.013 OD units | % of control ± sd (eNOS; 0.1 mM compound): 113.5 ± 7.93 [2] % of control | % of control ± sd (eNOS; 1 mM compound): 93.97 ± 12.93 [4] % of control
